The data set deals with hERG channel (Homo sapiens (Human), UniProt Q12809). The data set can be described thus: hERG-Channel Assay (Assay 3), whole-cell patch clamp. It counts as cell-based. Conditions: HEK293 cells transfected with hERG, 35° C. From the text: HEK (human embryonic kidney) 293 cells were stably transfected with hERG cDNA.
Cells were superfused with a bath solution containing (mM): NaCl (137), KCl (4.0), MgCl2 (1.0), CaCl2 (1.8), Glucose (10), HEPES (10), pH 7.4 with NaOH. Patch pipettes were made from borosilicate glass tubing using a horizontal puller and filled with pipette solution containing (mM): K-aspartate (130), MgCl2 (5.0), EGTA (5.0), K2ATP (4.0), HEPES (10.0), pH 7.2 with KOH. Resistance of the microelectrodes was in the range between 2 and 5 MΩ.
Membrane currents were recorded using an EPC-10 patch clamp amplifier and PatchMaster software. hERG-mediated membrane currents were recorded at 35° C., using the whole-cell configuration of the patch-clamp technique. Transfected HEK293 cells were clamped at a holding potential of −60 mV and hERG-mediated inactivating tail currents were elicited using a pulse pattern with fixed amplitudes (activation/inactivation: 40 mV for 2000 ms; recovery: −120 mV for 2 ms; ramp to 40 mV in 2 ms; inactivating tail current: 40 mV for 50 ms) repeated at 15 s intervals. During each inter-pulse interval 4 pulses scaled down by a factor of 0.2 were recorded for a P/n leak subtraction procedure. Rs compensation was employed up to a level that safely allowed recording devoid of ringing.
The different concentrations of the test compound were applied sequentially on each of the different cells investigated. A steady state level of baseline current was measured for at least 6 sweeps prior to the application of the first test compound concentration.
The test compound was dissolved in DMSO to yield a master stock solution which was diluted further in DMSO to stock solutions needed for the lower concentrations. Final dilutions in extracellular buffer were prepared freshly from these stocks by a 1:1000 dilution step each before starting the experiments.
Peak current amplitudes were measured 3 ms after the ramp to +40 mV. For baseline and each concentration the peak currents of the three last sweeps before application of the next concentration were averaged. Residual currents (I/I0) were calculated for each cell as the fraction of actual average peak current and average baseline peak current. Results are presented as percent (%) inhibition (1−I/I0)*100% at 10 μM.
(In general: hERG is a cardiac potassium channel; its block is linked to QT prolongation.)

Structures are written as SMILES.

Sequence of hERG channel (Q12809 whole entry, the tested form may be a part): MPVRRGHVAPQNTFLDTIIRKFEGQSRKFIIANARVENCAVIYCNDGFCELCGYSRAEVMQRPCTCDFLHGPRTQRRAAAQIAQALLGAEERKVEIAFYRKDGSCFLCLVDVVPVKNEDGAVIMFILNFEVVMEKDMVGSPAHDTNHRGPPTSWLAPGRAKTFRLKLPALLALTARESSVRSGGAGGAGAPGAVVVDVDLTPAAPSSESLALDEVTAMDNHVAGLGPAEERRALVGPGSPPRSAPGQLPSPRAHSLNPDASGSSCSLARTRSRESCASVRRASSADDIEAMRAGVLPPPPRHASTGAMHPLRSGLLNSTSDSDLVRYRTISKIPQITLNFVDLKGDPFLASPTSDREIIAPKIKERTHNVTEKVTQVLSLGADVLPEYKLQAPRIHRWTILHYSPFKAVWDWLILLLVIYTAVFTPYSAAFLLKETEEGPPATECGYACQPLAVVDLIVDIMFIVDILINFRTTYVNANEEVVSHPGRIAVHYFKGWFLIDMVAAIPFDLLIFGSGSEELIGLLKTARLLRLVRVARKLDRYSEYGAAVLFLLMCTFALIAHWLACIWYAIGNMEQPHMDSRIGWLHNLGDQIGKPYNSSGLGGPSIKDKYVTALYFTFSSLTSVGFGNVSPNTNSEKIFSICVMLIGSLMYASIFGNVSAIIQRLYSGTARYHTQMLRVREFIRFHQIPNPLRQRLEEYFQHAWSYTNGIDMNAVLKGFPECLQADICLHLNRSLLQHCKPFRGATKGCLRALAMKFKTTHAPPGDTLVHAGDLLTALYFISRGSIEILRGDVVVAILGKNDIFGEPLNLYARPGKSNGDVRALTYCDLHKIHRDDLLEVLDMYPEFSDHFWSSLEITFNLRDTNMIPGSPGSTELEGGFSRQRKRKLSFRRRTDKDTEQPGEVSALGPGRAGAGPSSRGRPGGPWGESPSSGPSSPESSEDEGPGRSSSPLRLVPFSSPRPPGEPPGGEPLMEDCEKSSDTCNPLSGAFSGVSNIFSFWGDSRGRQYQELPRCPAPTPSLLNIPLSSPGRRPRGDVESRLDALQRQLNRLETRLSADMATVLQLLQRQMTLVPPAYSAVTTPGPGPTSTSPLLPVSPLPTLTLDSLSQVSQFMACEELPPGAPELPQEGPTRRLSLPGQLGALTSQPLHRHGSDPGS

Take `CO[C@H]1[C@H](C)C[C@@]2(Cc3ccc(C#N)cc3[C@]23N=C(N)N(CC2(C)COC2)C3=O)C[C@@H]1C` [Example 11]: the “hERG % inhibition @ 10 μM (assay 3)” value stood at 6%.
Consider `CO[C@H]1CC[C@@]2(Cc3ccc(C#N)cc3[C@]23N=C(N)N(CC2(C)COC2)C3=O)C[C@@H]1C` [Example 8], for which the “hERG % inhibition @ 10 μM (assay 3)” value came to 16%.
Regarding `CC[C@@H]1C[C@@]2(Cc3ccc(C#N)cc3[C@]23N=C(N)N(CC(C)(C)F)C3=O)C[C@H](C)[C@H]1OC` [Example 26], the “hERG % inhibition @ 10 μM (assay 3)” value worked out at 8%.
In the case of `COCCN1C(=O)[C@]2(N=C1N)c1cc(C#N)ccc1C[C@@]21CC[C@H](OC)[C@@H](C)C1` [Example 7], the “hERG % inhibition @ 10 μM (assay 3)” value is 8%.
Under `CC[C@@H]1C[C@]2(CC[C@H]1OC)Cc1ccc(C#N)cc1[C@]21N=C(N)N(Cc2ncccn2)C1=O` [Example 1] stands 8%; under `CC[C@@H]1C[C@]2(CC[C@H]1OC)Cc1ccc(C#N)cc1[C@]21N=C(N)N(CC2CCOCC2)C1=O` [Example 2], 22%; under `CO[C@H]1[C@H](C)C[C@@]2(Cc3ccc(C#N)cc3[C@]23N=C(N)N(C2COC2)C3=O)C[C@@H]1C` [Example 12], 11%.
The same measure for `CO[C@H]1[C@H](C)C[C@@]2(Cc3ccc(C#N)cc3[C@]23N=C(N)N(C[C@@H]2CCO2)C3=O)C[C@@H]1C` (stereo in doubt) [Example 18]: 17%; for `CO[C@H]1[C@H](C)C[C@@]2(Cc3ccc(C#N)cc3[C@]23N=C(N)N(Cc2ncc(F)cn2)C3=O)C[C@@H]1C` [Example 10]: 38%; for `CO[C@H]1[C@H](C)C[C@@]2(Cc3ccc(C#N)cc3[C@]23N=C(N)N(C[C@@H]2CCCO2)C3=O)C[C@@H]1C` [Example 15]: 11%.
With `CC[C@H]1C[C@@]2(CC[C@@H]1OC)Cc1ccc(C#N)cc1[C@]21N=C(N)N(C[C@H]2CCCO2)C1=O` [Example 5], the “hERG % inhibition @ 10 μM (assay 3)” value is 7%.
Under `CO[C@H]1[C@H](C)C[C@@]2(Cc3ccc(C#N)cc3[C@]23N=C(N)N(CC2COC2)C3=O)C[C@@H]1C` [Example 13] stands 18%.
Under `CO[C@H]1[C@H](C)C[C@@]2(Cc3ccc(F)cc3[C@]23N=C(N)N(CC2(C)OCCO2)C3=O)C[C@@H]1C` [Example 29] stands 7%.
Under `CO[C@H]1CC[C@@]2(Cc3ccc(C#N)cc3[C@]23N=C(N)N(CC2COCCO2)C3=O)C[C@@H]1C` (stereo partly drawn) [Example 27] stands 19%.
On to `CO[C@H]1[C@H](C)C[C@@]2(Cc3ccc(C#N)cc3[C@]23N=C(N)N(C[C@H]2COCCO2)C3=O)C[C@@H]1C` [Example 22], for which the “hERG % inhibition @ 10 μM (assay 3)” value was 9%.
As to `CO[C@H]1[C@H](C)C[C@@]2(Cc3ccc(C#N)cc3[C@]23N=C(N)N(C[C@H]2CCCO2)C3=O)C[C@@H]1C` [Example 14], the “hERG % inhibition @ 10 μM (assay 3)” value came out at 20%.
In the case of `CC[C@@H]1C[C@]2(CC[C@H]1OC)Cc1ccc(C#N)cc1[C@]21N=C(N)N(C[C@H]2COCCO2)C1=O` [Example 28], the “hERG % inhibition @ 10 μM (assay 3)” value worked out at 9%.
Under `CC[C@@H]1C[C@]2(CC[C@H]1OC)Cc1ccc(C#N)cc1[C@]21N=C(N)N(CC(C)(C)F)C1=O` [Example 3] stands 9%.
Under `CO[C@H]1[C@H](C)C[C@@]2(Cc3ccc(F)cc3[C@]23N=C(N)N(C[C@@H]2CCOC2)C3=O)C[C@@H]1C` [Example 25] stands 10%; under `CO[C@H]1[C@H](C)C[C@@]2(Cc3ccc(C#N)cc3[C@]23N=C(N)N(CC2CCOCC2)C3=O)C[C@@H]1C` [Example 16], 6%.
As to `CO[C@H]1[C@H](C)C[C@@]2(Cc3ccc(C#N)cc3[C@]23N=C(N)N(CC2(C)OCCO2)C3=O)C[C@@H]1C` [Example 20], the “hERG % inhibition @ 10 μM (assay 3)” value stood at 8%.
Turning to `CO[C@H]1CC[C@@]2(Cc3ccc(C#N)cc3[C@]23N=C(N)N(Cc2ccncn2)C3=O)C[C@@H]1C` [Example 9], the “hERG % inhibition @ 10 μM (assay 3)” value is 16%.
The same measure for `COC1CCC2(CC1)Cc1ccc(C#N)cc1C21N=C(N)N(CC2CCCO2)C1=O` (stereo not drawn) [Comparison example drawing 13, reference compound]: 16%; for `CC[C@@H]1C[C@]2(CC[C@H]1OC)Cc1ccc(C#N)cc1[C@]21N=C(N)N(CC2(F)CCOCC2)C1=O` [Example 4]: 0%.
The same measure for `CO[C@H]1[C@H](C)C[C@@]2(Cc3ccc(C#N)cc3[C@]23N=C(N)N(C[C@@H]2COCCO2)C3=O)C[C@@H]1C` [Example 21]: 24%; for `CO[C@H]1[C@H](C)C[C@@]2(Cc3ccc(C#N)cc3[C@]23N=C(N)N(CC2(F)CCOCC2)C3=O)C[C@@H]1C` [Example 23]: 16%; for `CO[C@H]1CC[C@@]2(Cc3ccc(C#N)cc3[C@]23N=C(N)N(Cc2ncccn2)C3=O)C[C@@H]1C` [Example 6]: 35%.
As for `CO[C@H]1[C@H](C)C[C@@]2(Cc3ccc(C#N)cc3[C@]23N=C(N)N(Cc2ccncn2)C3=O)C[C@@H]1C` [Example 24], the “hERG % inhibition @ 10 μM (assay 3)” value is 23%.
For the compound `CO[C@H]1[C@H](C)C[C@@]2(Cc3ccc(C#N)cc3[C@]23N=C(N)N(CC(C)(C)F)C3=O)C[C@@H]1C` [Example 17], the “hERG % inhibition @ 10 μM (assay 3)” value is 12%.
Under `CO[C@H]1[C@H](C)C[C@@]2(Cc3ccc(C#N)cc3[C@]23N=C(N)N(CCC2COC2)C3=O)C[C@@H]1C` [Example 19] stands 8%.

The values above are taken from patent publication US9949975B2, “Inhibitors of beta-secretase” (Vitae Pharmaceuticals, Inc., priority 2012, dated 2018).
